In the pKa sets of Baltruschat and Czodrowski (2020) one finds pKa data, which are given here for 29 compounds.

Broadly, the pKa is the negative logarithm of the acid dissociation constant. Higher therefore signals a weaker acid or stronger base.

Structures are written as SMILES.

In turn, `COc1ccc([C@@H]2Sc3ccccc3N(CCN(C)C)C(=O)[C@@H]2OC(C)=O)cc1` gave a pKa of 8.06. `CC(CN(C)C)CN1c2ccccc2CCc2ccccc21` (centres undefined) showed a pKa of 9.24. Consider `Cc1ccccc1OCC(O)CNCCOc1ccc(C(N)=O)cc1` (centres undefined), for which the pKa is 7.9. `CC(CCc1ccccc1)NCC(O)c1ccc(O)c(C(N)=O)c1` (centres undefined): the pKa amounted to 7.4.

Compound `CN1CCCC(n2nc(Cc3ccc(Cl)cc3)c3ccccc3c2=O)CC1` (centres undefined) registered a pKa of 9.54. `CNS(=O)(=O)Cc1ccc2[nH]cc(CCN(C)C)c2c1`: the pKa was 9.5. For `Cc1ccc(O)c([C@@H](CCN(C(C)C)C(C)C)c2ccccc2)c1`, the pKa was found to be 9.8. In turn, `CNCCC=C1c2ccccc2CCc2ccccc21` registered a pKa of 10.1. `CCN(C)C(=O)Oc1cccc([C@H](C)N(C)C)c1`: the pKa is 8.99. The figure for `CN(C)CCCN1c2ccccc2CCc2ccc(Cl)cc21` is 9.38; for `CCc1nn(CCCN2CCN(c3cccc(Cl)c3)CC2)c(=O)n1CCOc1ccccc1` it is 6.5; for `CC(C)(C)NCC(O)COc1cccc2c1C[C@H](O)[C@H](O)C2` (some centres undefined) it is 9.67. `CN(C)CCCN1c2ccccc2Sc2ccccc21` displayed a pKa of 9.28.

Compound `CCOC(=O)C1(c2ccccc2)CCN(C)CC1` yielded a pKa of 8.7. Consider `COc1ccc2c(c1)N(C[C@H](C)CN(C)C)c1ccccc1S2`, for which the pKa came out at 9.19. The figure for `CC(C)(C)NCC(O)c1cc(O)cc(O)c1` (centres undefined) is 8.7; for `O=c1n(CCCN2CCN(c3cccc(Cl)c3)CC2)nc2ccccn12` it is 6.79. As for `CN1CCN2c3ncccc3Cc3ccccc3C2C1` (centres undefined), the pKa came to 7.3. The compound `CNCC[C@@H](Oc1ccccc1C)c1ccccc1` gave a pKa of 10.1. Compound `CNCCCC12CCC(c3ccccc31)c1ccccc12` yielded a pKa of 10.5. The figure for `CC(C)(C)NCC(O)COc1nsnc1N1CCOCC1` (centres undefined) is 8.8. Turning to `CN(C)CCC=C1c2ccccc2CCc2ccccc21`, the pKa came to 9.4. As for `CC(C)NCC(O)COc1ccc(COCCOC(C)C)cc1` (centres undefined), the pKa turned out to be 9.57.

Take `O=C(NCC1CCCCN1)c1cc(OCC(F)(F)F)ccc1OCC(F)(F)F` (centres undefined): the pKa was determined as 9.3. The figure for `OC(CNCC(O)C1CCc2cc(F)ccc2O1)C1CCc2cc(F)ccc2O1` (centres undefined) is 8.22; for `CC(CN1c2ccccc2Sc2ccccc21)N(C)C` (centres undefined) it is 9.1.

Regarding `CC(C)NCC(O)COc1ccc(CCOCC2CC2)cc1` (centres undefined), the pKa worked out at 9.21. With `COc1ccc2c3c1O[C@H]1[C@@H](O)C=C[C@H]4[C@@H](C2)N(C)CC[C@@]341`, the pKa stood at 8.2.

Take `CC(C)NCC(O)c1ccc(NS(C)(=O)=O)cc1` (centres undefined): the pKa came out at 9.76.
